40 compounds from patent publication US20160089464A1, “MALODOR REDUCTION COMPOSITIONS” (The Procter & Gamble Company, priority 2014, published 2016) can be followed below.

Structures are written as SMILES.

The data set can be described thus: Comment Code material properties: vapor pressure, ClogP, probability of ingredient color instability, odor detection threshold, melamine formaldehyde PMC headspace response ratio and leakage, liquid dish neat product liquid-air partition coefficient. It is filed as physicochemical. The settings on record: cell strings several class symbols together; each letter is one property class of L1.
With `CC1COC(C)(c2ccc3c(c2)C(C)(C)CCC3(C)C)O1` (stereo not shown) [Material 2], the “Comment Code” value is “DFHJ”. As to `C=C1C2CCC(C)(C)C1CCC(OC)C2` (stereo not shown) [Material 7], the “Comment Code” value is listed as “BDEFHJK”. Then `CCOC1CCC(C(C)(C)CC)CC1` (stereo not shown) [Material 12], with “ADEFHJK”. Under `CC=CCOCC/C=C\CC` [Material 19] stands “ADEFHJKL”. `COC(C)(C)C1CC=C(C)CC1` (stereo not shown) [Material 20]: the “Comment Code” value was “ADHIJKL”. Under `CC1C(C)(C)C2=C(C3OC(C)(C)OC3CC2)C1(C)C` (stereo not shown) [Material 23] stands “DEFHJK”; under `C=CC(C)(CCC=C(C)C)OC` (stereo not shown) [Material 24], “ADHIJKL”; under `COc1ccccc1C=CC=O` [Material 26], “ACHK”. Turning to `CC(C)CCCC(C)CC=O` (stereo not shown) [Material 27], the “Comment Code” value is reported as “ADGIJKL”.

For `CC1=CC(C)C2C(CCC(C)(C)C2O)C1` (stereo not shown) [Material 39], the “Comment Code” value is “DEFHIJK”. Then `CC1=CCC(C=CC(C)(C)C(C)O)C1(C)C` (stereo not shown) [Material 53], with “CEFHJ”; and `CC=CC(=O)OCCCCCC` [Material 55], with “ADEFHJKL”; and `CC(C)=CCC/C(C)=C\COC=O` [Material 59], with “BCEFHJK”. On to `C=CC(C)=CCC1OC1(C)C` (stereo not shown) [Material 73], for which the “Comment Code” value is on record as “ADGIJKL”.

Turning to `CCC(C)(O)/C=C/C=C(C)C` (stereo not shown) [Material 81], the “Comment Code” value was “BCEFGIJK”. Then `CC/C=C\CCOC(=O)C1CC1` [Material 84], with “BCEFHIKL”; and `CCC(=O)OC(C)c1ccccc1` (stereo not shown) [Material 96], with “BCHJK”. Regarding `COC(=O)Cc1ccccc1` [Material 97], the “Comment Code” value is given as “ACEFHIKL”. Under `CC1CCC2(CCCC(=O)O2)C1` (stereo not shown) [Material 107] stands “BCEFGIKL”. Then `COC(=O)C=C(C)CCC=C(C)C` [Material 111], with “BCHJKL”. Then `CCOc1cc(COC)ccc1O` [Material 115], with “CFGK”. Regarding `COC(=O)C=C1CCCC1` [Material 116], the “Comment Code” value was “ACEFHIKL”.

On to `COC(C)(C)CCCC(C)C=O` (stereo not shown) [Material 125], for which the “Comment Code” value is “ACGIJK”. Regarding `CC(C)C1CCC(CO)CC1` (stereo not shown) [Material 133], the “Comment Code” value is recorded as “BDEFHIJK”. Under `CC1OC(C)C2Cc3ccccc3C2O1` (stereo not shown) [Material 141] stands “CEFHJK”; under `C=CC(C)(CCC=C(C)C)OC=O` (stereo not shown) [Material 150], “ACFHJK”; under `C=CC(C)(CCC=C(C)C)OC(=O)CCC` (stereo not shown) [Material 151], “BDEFHJK”.

For the compound `C=CC(C)(CCC=C(C)C)OC(C)=O` (stereo not shown) [Material 154], the “Comment Code” value is given as “BDHJK”. As for `C=CC(C)(O)CCC=C(C)C` (stereo not shown) [Material 157], the “Comment Code” value is “BCEFGIJK”. Under `CC/C=C\CCOC(=O)OC` [Material 163] stands “ACEFGKL”. `Cc1ccnc2ccccc12` [Material 166]: the “Comment Code” value is reported as “BCEFHIKL”. Consider `C=C(C)[C@@H]1CC=C(C)C(=O)C1` [Material 169], for which the “Comment Code” value is listed as “ACGIJKL”. Then `C=C1[C@H]2CC[C@H](CO)[C@@]23CC[C@H](C3)C1(C)C` [Material 183], with “CEFHJK”; and `CC1(CO)CC1CC1CC2CC2(C)C1(C)C` (stereo not shown) [Material 185], with “DEFHJK”. Then `CC(C)C=CCO` [Material 194], with “ACGIKL”. Then `CCC(C)C(=O)OC(C)C` (stereo not shown) [Material 198], with “ACEFGIJKL”; and `COc1c2ccoc2c(OC)c2oc(=O)ccc12` [Material 199], with “CFGJ”. Turning to `C=C(C)CC(C)OC(=O)C(C)C` (stereo not shown) [Material 201], the “Comment Code” value is “ADEFGIJKL”.

Turning to `CC(=O)OCCCCCCC(C)C` [Material 204], the “Comment Code” value is given as “BDEFHJKL”. Under `CC(C)CCCCCCO` [Material 205] stands “BDEFGIKL”.
